According to paper PMC6768889 (Cancer Chemotherapy and Pharmacology, 2019):
Where “and” joins values, the source holds several entries; their conditions need not be identical. Equal values may be shown once. Where a name gives a salt, the structure may show the parent alone. Read-outs that look alike come from different tables or passages of the source.

Legend:
gastric acid secretion = test system: gastric acid secretion; set-up: method as in earlier work; settings: cited from earlier work
[1] = by treatment group
[2] = cited from earlier work
[3] = Safety: treatment-emergent adverse events, vital signs and laboratory tests in the phase 1 study; format: in vivo, human
Method: The safety analysis population consisted of all randomized subjects who received quizartinib or at least one dose of lansoprazole. Safety was assessed with physical examinations, vital signs, AE evaluations, 12-lead electrocardiograms (ECGs), and clinical laboratory tests (hematology, chemistry, and urinalysis). AEs were evaluated during the study according to the Medical Dictionary for Regulatory Activities version 17.1 and assessed for severity and relation to study drugs. Laboratory results were summarized based on National Cancer Institute Common Terminology Criteria for Adverse Events version 4.03.

[4] = Phase 1 drug–drug interaction study: plasma PK of quizartinib, AC886 and quizartinib + AC886 after a single 30-mg quizartinib tablet alone or with lansoprazole; format: in vivo, human; settings: for Vd/F: read-out: Vz/F (CV%), geometric mean; for CL/F (CV%), geometric mean: quizartinib
Method: The tolerability and safety of quizartinib administered alone and in combination with lansoprazole were also assessed. The study was conducted in compliance with the Declaration of Helsinki and the International Conference on Harmonisation (ICH)/Good Clinical Practice as well as all applicable state, local, and federal regulations. The study protocol, amendments, and informed consent forms were reviewed and approved by the institutional review board. All subjects provided written informed consent before any study-related procedure took place.
Subjects were randomized into two groups: lansoprazole and quizartinib (lansoprazole + quizartinib; test group) and quizartinib alone (reference group). On days 1–5, subjects in the test group were administered 60-mg lansoprazole (2 × 30 mg oral delayed-released capsule) once daily in the morning before food. […] All study drugs were taken with approximately 240 mL of water.
Plasma concentrations were determined by BASi (West Lafayette, IN, USA) using a validated analytical method.
Samples were injected into an LC–MS/MS system (LC: Nexera System, Shimadzu Scientific Instruments, Columbia, MD, USA; MS: API 5500™, SCIEX, Framingham, MA, USA) using a PFP column (Phenomenex/Kinetex, Torrance, CA, USA) with a gradient ammonium formate/formic acid/acetonitrile/water mobile phase. […] For AC886 at the LLOQ, precision was 6.0% CV and accuracy was 0.2% bias across 14 runs; accuracy ranged from −7.9 to 10.6% bias within runs. For AC886 at the upper limit of quantitation, precision was 2.9% CV and accuracy was −1.4% bias across 14 runs; accuracy ranged from −6.4 to 4.6% bias within runs.
A sample size of 25 subjects per group was determined to yield a ≤ 10% relative standard error of the mean, based on the observed intersubject coefficient of variation (CV%) of approximately 60% for PK parameters in a previous drug–drug interaction study in healthy volunteers (data on file, Daiichi Sankyo, Inc., Basking Ridge, NJ, USA). Up to 32 subjects/group were planned to account for possible premature withdrawal. Descriptive statistics were used to summarize plasma concentrations and PK parameters of the PK analysis population. Safety parameters were summarized in the safety analysis population using descriptive statistics. All descriptive statistics were calculated using SAS® software version 9.3 (SAS Institute Inc., Cary, NC, USA). […] PK parameters were natural logarithm (ln)-transformed prior to analyses. The ln-transformed PK results were back-transformed by exponentiation to obtain the geometric least squares mean (LSM) for each treatment and calculate geometric LSM ratios for pairwise comparisons.

[5] = In vitro solubility assessment; format: physicochemical
[6] = day 5, up to 8 h after quizartinib
[7] = all patients, quizartinib with/without lansoprazole, N = 63
[8] = all subjects, quizartinib with or without lansoprazole
[9] = by treatment group, safety population
[10] = healthy subjects, single 30-mg quizartinib
[11] = quizartinib in plasma, single 30-mg quizartinib alone, n = 30

In the case of `Cc1c(OCC(F)(F)F)ccnc1C[S+]([O-])c1nc2ccccc2[nH]1` (centres unmarked) [Lansoprazole, lansoprazole], the “Duration of inhibitory effect on gastric acid secretion” value (gastric acid secretion) is listed as “over 24 h”, the Elimination half-life (gastric acid secretion) is listed as “less than 2 h” and the “Mean 24-h intragastric pH” value (gastric acid secretion; lansoprazole 30 mg once daily for 5 days, baseline 2.1) is listed as 4.9.
For `CC(C)(C)c1cc(NC(=O)Nc2ccc(-c3cn4c(n3)sc3cc(OCCN5CCOCC5)ccc34)cc2)no1` [Quizartinib, quizartinib], the “Subjects with maximum QTcF value > 480 ms” value [1] was “None”, the “Maximum QTcF change from baseline in most subjects” value [1, 6] was no more than 30 ms and the “Maximum QTcF value in most subjects” value [1, 6] was no more than 450 ms. The half-life ([2]; estimated in AML patients, ref data on file, Daiichi Sankyo Inc., Basking Ridge, NJ, USA) was 73 h, the “Time to maximum concentrations” value ([2]; healthy subjects and patients with AML, range 2–8 h) was 4 h and the “TEAE: Back pain” value [3, 7] was 2 (3.2) n (%). For the same molecule, the “TEAE: Constipation” value [3, 7] was 2 (3.2) n (%), the “TEAE: Dermatitis” value [3, 7] was 1 (1.6) n (%) and the “TEAE: Diarrhea” value [3, 7] was 1 (1.6) n (%). The “TEAE: Dizziness” value [3, 7] was 1 (1.6) n (%), the “TEAE: Fatigue” value [3, 7] was 2 (3.2) n (%) and the “TEAE: Headache” value [3, 7] was 3 (4.8) n (%). For the same molecule, the “TEAE: Hypoacusis” value [3, 7] was 1 (1.6) n (%), the “TEAE: Hypoesthesia” value [3, 7] was 1 (1.6) n (%) and the “TEAE: Muscle tightness” value [3, 7] was 2 (3.2) n (%). The “TEAE: Musculoskeletal pain” value [3, 7] was 1 (1.6) n (%), the “TEAE: Musculoskeletal stiffness” value [3, 7] was 1 (1.6) n (%) and the “TEAE: Nasal congestion” value [3, 7] was 1 (1.6) n (%). For the same molecule, the “TEAE: Nausea” value [3, 7] was 2 (3.2) n (%), the “TEAE: Phlebotomy” value [3, 7] was 1 (1.6) n (%) and the “TEAE: Sneezing” value [3, 7] was 1 (1.6) n (%). The “TEAE: Throat irritation” value [3, 7] was 1 (1.6) n (%), the “TEAE: Upper respiratory tract infection” value [3, 7] was 5 (7.9) n (%) and the “TEAE: Vessel puncture site pain” value [3, 7] was 1 (1.6) n (%). The “Abnormalities in vital signs, hematology, or clinical chemistry” value [3, 8] was “No significant abnormalities”, the “Severe or serious TEAEs” value [3, 8] was “no severe or serious TEAEs” and the “Subjects with TEAEs of mild severity among the 20 subjects who experienced a TEAE” value [3, 8] was 95%. The “Subjects with at least one quizartinib-related TEAE (nausea, diarrhea, dizziness, headache, fatigue)” value [3, 8] was “Three”, the “Subjects with at least one treatment-emergent AE (TEAE) following quizartinib treatment on day 5” value ([3]; all subjects, quizartinib with or without lansoprazole, N = 63) was 31.7% and the “TEAE: Back pain” value [3, 9] was 1 (3.3) n (%). The “TEAE: Constipation” value [3, 9] was 1 (3.3) n (%), the “TEAE: Dermatitis” value [3, 9] was 0 n (%) and the “TEAE: Diarrhea” value [3, 9] was 1 (3.3) n (%). The “TEAE: Dizziness” value [3, 9] was 0 n (%), the “TEAE: Fatigue” value [3, 9] was 1 (3.3) n (%) and the “TEAE: Headache” value [3, 9] was 3 (10.0) n (%). The “TEAE: Hypoacusis” value [3, 9] was 0 n (%), the “TEAE: Hypoesthesia” value [3, 9] was 0 n (%) and the “TEAE: Muscle tightness” value [3, 9] was 2 (6.7) n (%). The “TEAE: Musculoskeletal pain” value [3, 9] was 1 (3.3) n (%), the “TEAE: Musculoskeletal stiffness” value [3, 9] was 1 (3.3) n (%) and the “TEAE: Nasal congestion” value [3, 9] was 1 (3.3) n (%). For the same molecule, the “TEAE: Nausea” value [3, 9] was 1 (3.3) n (%), the “TEAE: Phlebotomy” value [3, 9] was 0 n (%) and the “TEAE: Sneezing” value [3, 9] was 1 (3.3) n (%). The “TEAE: Throat irritation” value [3, 9] was 1 (3.3) n (%), the “TEAE: Upper respiratory tract infection” value [3, 9] was 2 (6.7) n (%) and the “TEAE: Vessel puncture site pain” value [3, 9] was 0 n (%). The “TEAE: Dysmenorrhea” value ([3]; by treatment group, safety population, after database lock one event was found to be pre-existing) was 1 (3.3) n (%), the “Subjects with at least one treatment-emergent AE (TEAE) following quizartinib treatment on day 5” value ([3]; by treatment group, quizartinib alone n = 30, lansoprazole + quizartinib n = 33) was 30.0% and the “Overall safety and tolerability” value ([3]; healthy subjects, with or without lansoprazole) was “generally safe and well tolerated”. For the same molecule, the “Decrease in AUCinf (geometric LSM) for lansoprazole + quizartinib versus quizartinib alone” value [4, 10] was 4.7%, the “Decrease in AUClast (geometric LSM) for lansoprazole + quizartinib versus quizartinib alone” value [4, 10] was 6.0% and the “Decrease in Cmax (geometric LSM) for lansoprazole + quizartinib versus quizartinib alone” value [4, 10] was 13.9%. For the same molecule, the AUC(0-inf) ([4]; human, plasma, oral, 30 mg, quizartinib in plasma, quizartinib alone, n = 30, read-out: AUCinf, geometric LS mean (ANOVA)) was 8660 ng·h/mL, the AUC(0-t) ([4]; human, plasma, oral, 30 mg, quizartinib in plasma, quizartinib alone, n = 30, read-out: AUClast, geometric LS mean (ANOVA)) was 8330 ng·h/mL and the AUC(0-inf) ([4]; human, plasma, oral, 30 mg, quizartinib in plasma, single 30-mg quizartinib alone, n = 30, read-out: AUCinf (CV%), geometric mean) was 8660 ng·h/mL. The AUC(0-t) ([4]; human, plasma, oral, 30 mg, quizartinib in plasma, single 30-mg quizartinib alone, n = 30, read-out: AUClast (CV%), geometric mean) was 8330 ng·h/mL, the Vd/F ([4]; human, plasma, oral, 30 mg) was 431 L and the AUC(0-inf) ([4]; human, plasma, oral, quizartinib in plasma, lansoprazole 60 mg once daily + single 30-mg quizartinib, n = 31, read-out: AUCinf (CV%), geometric mean) was 8260 ng·h/mL. For the same molecule, the AUC(0-t) ([4]; human, plasma, oral, quizartinib in plasma, lansoprazole 60 mg once daily + single 30-mg quizartinib, n = 32, read-out: AUClast (CV%), geometric mean) was 7830 ng·h/mL, the AUC(0-inf) ([4]; human, plasma, oral, quizartinib in plasma, lansoprazole + quizartinib, n = 31, read-out: AUCinf, geometric LS mean (ANOVA)) was 8260 ng·h/mL and the AUC(0-t) ([4]; human, plasma, oral, quizartinib in plasma, lansoprazole + quizartinib, n = 32, read-out: AUClast, geometric LS mean (ANOVA)) was 7830 ng·h/mL. For the same molecule, the half-life ([4]; human, plasma, oral, read-out: Mean T1/2 (SD), arithmetic mean (converted)) was 107 h, the Tmax ([4]; human, plasma, oral, read-out: Median Tmax (min, max)) was 3.5 h and the Vd/F ([4]; human, plasma, oral) was 479 L. The “Median Tmax (min, max)” value ([4]; quizartinib in plasma, healthy subjects, single 30-mg quizartinib tablet alone, fasted, n = 30) was 4.0 (2.0, 8.0) h, the “Cmax, geometric LS mean (ANOVA)” value ([4]; quizartinib in plasma, quizartinib alone, n = 30) was 104.8 ng/mL and the “Cmax (CV%), geometric mean” value [4, 11] was 105 (16.3) ng/mL. For the same molecule, the “Mean T1/2 (SD), arithmetic mean” value [4, 11] was 102.2 (29.0) h, the “CL/F (CV%), geometric mean” value ([4]; lansoprazole 60 mg once daily + single 30-mg quizartinib, n = 31) was 3.2 L/h and 3.2 (46.4)^b L/h and the “CL/F (CV%), geometric mean” value ([4]; single 30-mg quizartinib alone, n = 30) was 3.1 L/h and 3.1 (37.4) L/h.
For `CC(C)(C)c1cc(NC(=O)Nc2ccc(-c3cn4c(n3)sc3cc(OCCN5CCOCC5)ccc34)cc2)no1` [quizartinib dihydrochloride], the “pH dependence of solubility” value [5] was “pH dependent” and the solubility ([5]; at physiological pH in the intestine) was less than 0.4 µg/mL.
